# Results: patent US11458141B2, “Aryl hydrocarbon receptor (AhR) agonists for the prevention and treatment of inflammatory disorders” (The Johns Hopkins University, priority 2017, dated 2022)
# “Also recorded” adds a separate entry of the source.
# Key:
# Tlr4 mRNA in the ileum = test: Ileal Tlr4 mRNA and microRNA expression in neonatal mice given I3C; type: in vivo, mouse; details: 7-day-old mice, 25 mg/kg oral gavage, after 24 hours
# Method: Neonatal mice at the age of 7 days old were given AHR agonist […] (25 mg/kg) via oral gavage, and the ileal expression of Tlr4 mRNA and microRNAs, which have been reported to down-regulate Tlr4 transcription, were quantified after 24 hours. Referring now to FIG. 24, the mRNA expression of Tlr4 was quantified in the ileum of neonatal mice treated with AHR agonist […]. Data are represented as mean±SEM; *p<0.05 between indicated groups; each dot represents an individual mouse. […] Referring now to FIG. 25, the expression of let-71, miR-223, and miR-146b, which are microRNAs known to inhibit Tlr4 mRNA expression, was quantified in the ileum of neonatal mice treated with AHR agonist […]. Data are represented as mean±SEM; *p<0.05 between indicated groups; each dot represents an individual mouse.
# [1] = system: Toll-like receptor 4 (Tlr4) mRNA in IEC-6 cells; test: Tlr4 mRNA and microRNA expression in IEC-6 cells treated with I3C; type: cell-based, rat
# Method: Rat intestinal epithelial cell line IEC-6 was treated with aryl hydrocarbon receptor (AHR) agonist indole-3-carbinol (13C) for 4 and 6 hours, and then the expression of Toll-like receptor 4 (Tlr4) mRNA and the microRNAs, which have been reported to down-regulate Tlr4 transcription, were quantified, respectively. Referring now to FIG. 22, the mRNA expression of Tlr4 was quantified in IEC-6 cells treated with AHR agonist […] for 6 hours. Data are represented as mean±SEM; *p<0.05 between indicated groups; each dot represents an individual sample. […] Referring now to FIG. 23, the expression of let-7i, miR-223, and miR-146b, which are microRNAs known to inhibit Tlr4 mRNA expression, was quantified in IEC-6 cells treated with AHR agonist […] for 4 hours. Data are represented as mean±SEM; *p<0.05 between indicated groups; each dot represents an individual sample.
# [2] = system: TLR4 signaling in the intestinal epithelium; test: LPS-induced TLR4 signaling and Cypla1 in the intestinal mucosa of mice; type: in vivo, mouse
# Text: In seeking to investigate how AHR signaling attenuates NEC severity, whether AHR activation could limit the degree of TLR4 signaling in the gut was investigated. To do so, enteroids were derived from wild-type mice, which are intestinal cultures containing all cell lineages derived from intestinal crypts, as have been described.
# mice with NEC = test: Maternal I3C administration, Tnf alpha and Il6 mRNA in ileum of offspring with NEC; type: in vivo, mouse; details: mums 25 mg/kg oral gavage E7 to P7, NEC groups
# Method: The pups whose mums received 25 mg/kg indole-3-carbinol (13C) by oral gavage starting from the embryonic age 7 (E7) of the fetus until the postnatal day 7 (P7) were included in maternal […]-rich group, while the pups whose mums received vehicle were included in maternal […]-free group. Necrotizing enterocolitis (NEC) was induced in 7-day-old mouse pups by gavage feeding and hypoxia exposure for 4 days. The ileum was harvested at the end of experiment and the mRNA expression of target genes was analyzed by qPCR. Referring now to FIG. 8, the mRNA expression of pro-inflammatory cytokine tumor necrosis factor alpha (Tnf alpha) was quantified in the ileum of experimental NEC models. Data are represented as mean±SEM; *p<0.05 between indicated groups; each dot represents an individual mouse. […] Referring now to FIG. 9, the mRNA expression of pro-inflammatory cytokine Interleukin-6 (Il6) was quantified in the ileum of experimental NEC models. Data are represented as mean±SEM; *p<0.05 between indicated groups; each dot represents an individual mouse.
smiles,measurement,setting,value
"OCc1c[nH]c2ccccc12 [I3C, indole-3-carbinol]",expression of let-7i in the ileum,Tlr4 mRNA in the ileum,significantly increased
same,expression of miR-146b in the ileum,Tlr4 mRNA in the ileum,significantly increased
same,expression of miR-223 in the ileum,Tlr4 mRNA in the ileum,significantly increased
same,mRNA expression of Tlr4 in the ileum,Tlr4 mRNA in the ileum,significantly reduced the expression of Tlr4 mRNA
same,expression of let-7i,[1]; 4 hours,significantly increased
same,expression of miR-146b,[1]; 4 hours,significantly increased
same,expression of miR-223,[1]; 4 hours,significantly increased
same,mRNA expression of Tlr4,[1]; 6 hours,significantly reduced the expression of Tlr4 mRNA
same,enterocyte apoptosis after TLR4 activation,"[2]; intestinal mucosa, I3C, LPS",reversed the deleterious effects of TLR4 activation on enterocyte apoptosis; also recorded: reverses LPS induced apoptosis
same,mucosal healing / proliferation after TLR4 activation,"[2]; intestinal mucosa, I3C, LPS",improved mucosal healing; also recorded: reverses LPS induced apoptosis and impaired proliferation
same,TLR4-induced (LPS) cytokine induction in the intestinal mucosa,"[2]; wild type mice, I3C 50 mg/kg, LPS 5 mg/kg",reduced TLR4-induced (LPS 5 mg/kg) cytokine induction; also recorded: reduces TLR4 signaling; also recorded: reduces LPS-induced IL-6
same,Cypla1 expression,"[2]; wild-type mice, I3C 50 mg/kg",induced Cypla1 expression; also recorded: increases Cypla1
same,Il6 mRNA expression in offspring,mice with NEC,significantly reduced the Il6 expression
same,Tnf alpha mRNA expression in offspring,mice with NEC,significantly reduced the Tnf alpha expression
